US20250145665A1, “MACROCYCLIC PEPTIDES USEFUL AS MODULATORS OF TNF ALPHA” (Bristol-Myers Squibb Company, priority 2023, published 2025)
Positions of bridges follow the written chain, without caps; N, C: chain ends. Non-standard residues stand in square brackets, D forms with d. Residues, ends and D or L forms follow the SMILES beside them. Bip(4'-NHBz) = N[C@@H](Cc1ccc(-c2ccc(NC(=O)c3ccccc3)cc2)cc1)C(=O)O; Bip(4'-CONHMe) = CNC(=O)c1ccc(-c2ccc(C[C@H](N)C(=O)O)cc2)cc1; Bip(4'-COOH) = N[C@@H](Cc1ccc(-c2ccc(C(=O)O)cc2)cc1)C(=O)O; Bip(4'-NHAc) = CC(=O)Nc1ccc(-c2ccc(C[C@H](N)C(=O)O)cc2)cc1; Ala(morpholin-4-yl) = N[C@@H](CN1CCOCC1)C(=O)O; Phe(3-CONH2) = NC(=O)c1cccc(C[C@H](N)C(=O)O)c1; Bip = N[C@@H](Cc1ccc(-c2ccccc2)cc1)C(=O)O; cisHyp = O=C(O)[C@@H]1C[C@H](O)CN1; NMeF = CN[C@@H](Cc1ccccc1)C(=O)O; Cha = N[C@@H](CC1CCCCC1)C(=O)O; Tle = CC(C)(C)[C@H](N)C(=O)O; Aze = O=C(O)[C@@H]1CCN1; Sar = CNCC(=O)O

These molecules were tested against TNFα (Homo sapiens, UniProt P01375) (assay: TNF-Induced HEK-Blue Assay). Conditions: not given.
Sequence of TNFα (P01375 77-233 limits assumed): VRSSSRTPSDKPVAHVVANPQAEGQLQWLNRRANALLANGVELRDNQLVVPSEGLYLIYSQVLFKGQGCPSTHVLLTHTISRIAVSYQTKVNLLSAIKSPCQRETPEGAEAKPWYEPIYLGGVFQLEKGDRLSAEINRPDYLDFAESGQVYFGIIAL
Assay type: cell-based

Compound | IC50
CC[C@H](C)[C@@H]1NC(=O)[C@@H]2CCN2C(=O)[C@H]([C@@H](C)CC)NC(=O)[C@@H](CCCNC(=N)N)NC(=O)[C@H](CC(=O)O)NC(=O)[C@H](Cc2ccc(O)cc2)NC(=O)CN(C)C(=O)[C@H](Cc2ccc(-c3ccc(NC(=O)c4ccccc4)cc3)cc2)NC(=O)[C@H](Cc2ccc(-c3ccccc3)cc2)NC(=O)[C@H](C(C)(C)C)NC(=O)CSC[C@@H](C(=O)NCC(N)=O)NC(=O)[C@H](CC(C)C)NC(=O)[C@H](Cc2ccc(O)cc2)NC1=O [Example 376] ({CH2CO}-[Tle][Bip][Bip(4'-NHBz)][Sar]YD[dR]I[Aze]IYLCG-NH2; thioether N-13) | 0.05 to 0.2 µM

Same assay, conditions: HEK-Blue-CD40L cells, NF-kB-driven secreted alkaline phosphatase reporter; TNFα 0.5 ng/ml; 18 h; read-out: TNF induced HEK-Blue assay IC50 value

Compound | IC50
CC(=O)Nc1ccc(-c2ccc(C[C@@H]3NC(=O)[C@H](Cc4ccc(-c5ccccc5)cc4)NC(=O)[C@H](CN4CCOCC4)NC(=O)CSC[C@@H](C(=O)NCC(N)=O)NC(=O)[C@H](CC(C)C)NC(=O)[C@H](Cc4ccc(O)cc4)NC(=O)[C@H](C(C)C)NC(=O)[C@@H]4CCCN4C(=O)[C@H](C(C)C)NC(=O)[C@@H](CCCNC(=N)N)NC(=O)[C@H](CC(=O)O)NC(=O)[C@@H]4C[C@H](O)CN4C(=O)CN(C)C3=O)cc2)cc1 [Example 183] ({CH2CO}-[Ala(morpholin-4-yl)][Bip][Bip(4'-NHAc)][Sar][cisHyp]D[dR]VPVYLCG-NH2; thioether N-13) | 0.05 to 0.2 µM
CC(C)C[C@@H]1NC(=O)[C@H](Cc2ccccc2)N(C)C(=O)[C@H](C(C)C)NC(=O)[C@@H]2CCCN2C(=O)[C@H](C(C)C)NC(=O)[C@@H](CCCNC(=N)N)NC(=O)[C@H](CC(=O)O)NC(=O)[C@H](Cc2ccc(O)cc2)NC(=O)CN(C)C(=O)[C@H](Cc2ccc(-c3ccccc3)cc2)NC(=O)[C@H](Cc2ccc(-c3ccc(C(=O)O)cc3)cc2)NC(=O)[C@H](CN2CCOCC2)NC(=O)CSC[C@@H](C(=O)NCC(N)=O)NC1=O [Example 220] ({CH2CO}-[Ala(morpholin-4-yl)][Bip(4'-COOH)][Bip][Sar]YD[dR]VPV[NMeF]LCG-NH2; thioether N-13) | < 0.05 µM
CC(C)C[C@@H]1NC(=O)[C@H](Cc2cccc(C(N)=O)c2)NC(=O)[C@H](C(C)C)NC(=O)[C@@H]2CCCN2C(=O)[C@H](C(C)C)NC(=O)[C@@H](CCCNC(=N)N)NC(=O)[C@H](CC(=O)O)NC(=O)[C@H](Cc2ccc(O)cc2)NC(=O)CN(C)C(=O)[C@H](Cc2ccc(-c3ccccc3)cc2)NC(=O)[C@H](Cc2ccc(-c3ccccc3)cc2)NC(=O)[C@H](CN2CCOCC2)NC(=O)CSC[C@@H](C(=O)NCC(N)=O)NC1=O [Example 156] ({CH2CO}-[Ala(morpholin-4-yl)][Bip][Bip][Sar]YD[dR]VPV[Phe(3-CONH2)]LCG-NH2; thioether N-13) | 0.05 to 0.2 µM

Second part, the molecule after the results:

IC50 | Compound
0.05 to 0.2 µM | CC(=O)Nc1ccc(-c2ccc(C[C@@H]3NC(=O)[C@H](Cc4ccc(-c5ccc(C(=O)O)cc5)cc4)NC(=O)[C@H](CC4CCCCC4)NC(=O)CSC[C@@H](C(=O)NCC(N)=O)NC(=O)[C@H](CC(C)C)NC(=O)[C@H](Cc4cnc[nH]4)NC(=O)[C@H](C(C)C)NC(=O)[C@@H]4CCN4C(=O)[C@H](C(C)C)NC(=O)[C@@H](CCCNC(=N)N)NC(=O)[C@H](CC(=O)O)NC(=O)[C@H](Cc4ccc(O)cc4)NC(=O)CN(C)C3=O)cc2)cc1 [Example 271] ({CH2CO}-[Cha][Bip(4'-COOH)][Bip(4'-NHAc)][Sar]YD[dR]V[Aze]VHLCG-NH2; thioether N-13)
< 0.05 µM | CC[C@H](C)[C@@H]1NC(=O)[C@@H](CCCNC(=N)N)NC(=O)[C@H](CC(=O)O)NC(=O)[C@H](Cc2cnc[nH]2)NC(=O)CN(C)C(=O)[C@H](Cc2ccc(-c3ccc(C(=O)NC)cc3)cc2)NC(=O)[C@H](Cc2ccc(-c3ccccc3)cc2)NC(=O)[C@H](CC2CCCCC2)NC(=O)CSC[C@@H](C(=O)NCC(N)=O)NC(=O)[C@H](CC(C)C)NC(=O)[C@H](Cc2cnc[nH]2)NC(=O)[C@H](C(C)C)NC(=O)[C@@H]2CCCN2C1=O [Example 396] ({CH2CO}-[Cha][Bip][Bip(4'-CONHMe)][Sar]HD[dR]IPVHLCG-NH2; thioether N-13)
